Patent publication US20170298052A1, “SUBSTITUTED OXOPYRIDINE DERIVATIVES” (BAYER PHARMA AKTIENGESELLSCHAFT, priority 2014, published 2017)

Assays:
human plasma kallikrein = human plasma kallikrein (Homo sapiens, UniProt P03952); assay: Determination of the plasma kallikrein activity (fluorogenic peptide substrate, AMC cleavage); format: biochemical; conditions: plasma kallikrein from Kordia 0.6 nM; substrate H-Pro-Phe-Arg-AMC; 30 min at 22° C.; read-out: IC50 [nM] (Table B, plasma kallikrein inhibition)
Procedure: (§1) To determine the plasma kallikrein inhibition of the substances according to the invention, a biochemical test system is used which utilizes the reaction of a peptidic plasma kallikrein substrate to determine the enzymatic activity of human plasma kallikrein. Here, plasma kallikrein cleaves from the peptic plasma kallikrein substrate the C-terminal aminomethylcoumarin (AMC), the fluorescence of which is measured. The determinations are carried out in microtitre plates.
Test substances are dissolved in dimethyl sulphoxide and serially diluted in dimethyl sulphoxide (3000 μM to 0.0078 μM; resulting final concentrations in the test: 50 μM to 0.00013 μM). 1 μl of the diluted substance solutions is placed into each of the wells of white microtitre plates from Greiner (384 wells). 20 μl of assay buffer (50 mM Tris/HCl pH 7.4; 100 mM sodium chloride solution; 5 mM of calcium chloride solution; 0.1% of bovine serum albumin) and 20 μl of plasma kallikrein from Kordia (0.6 nM in assay buffer) are then added successively. After 15 min of incubation, the enzyme reaction is started by addition of 20 μl of the substrate H-Pro-Phe-Arg-AMC dissolved in assay buffer (10 μM in assay buffer) from Bachem, the mixture is incubated at room temperature (22° C.) for 30 min and fluorescence is then measured (excitation: 360 nm, emission: 460 nm). The measured emissions of the test batches with test substance are compared to those of control batches without test substance (only dimethyl sulphoxide instead of test substance in dimethyl sulphoxide), and IC50 values are calculated from the concentration/activity relationships.

human factor XIa = biological target: T1, human factor XIa (Homo sapiens, UniProt P03951); assay: Measurement of FXIa inhibition (fluorogenic peptide substrate, AMC cleavage); format: biochemical; conditions: factor XIa from Kordia 0.45 nM; substrate Boc-Glu(OBzl)-Ala-Arg-AMC; 30 min at 22° C.
T1 construct: purchased Kordia
Procedure: as §1, with “The factor XIa” for “To determine the plasma kallikrein”, “invention is determined using” for “invention,”, “system” for “system is used”, “factor XIa” for “plasma kallikrein”, “factor XIa.” for “plasma kallikrein.”
1 μl of the diluted substance solutions is placed into each of the wells of white microtitre plates from Greiner (384 wells). […] After 15 min of incubation, the enzyme reaction is started by addition of 20 μl of the factor XIa substrate Boc-Glu(OBzl)-Ala-Arg-AMC dissolved in assay buffer (10 μM in assay buffer) from Bachem, the mixture is incubated at room temperature (22° C.) for 30 min and fluorescence is then measured (excitation: 360 nm, emission: 460 nm). The measured emissions of the test batches with test substance are compared to those of control batches without test substance (only dimethyl sulphoxide instead of test substance in dimethyl sulphoxide), and IC50 values are calculated from the concentration/activity relationships.

Chain of human plasma kallikrein (P03952 391-638 limits assumed): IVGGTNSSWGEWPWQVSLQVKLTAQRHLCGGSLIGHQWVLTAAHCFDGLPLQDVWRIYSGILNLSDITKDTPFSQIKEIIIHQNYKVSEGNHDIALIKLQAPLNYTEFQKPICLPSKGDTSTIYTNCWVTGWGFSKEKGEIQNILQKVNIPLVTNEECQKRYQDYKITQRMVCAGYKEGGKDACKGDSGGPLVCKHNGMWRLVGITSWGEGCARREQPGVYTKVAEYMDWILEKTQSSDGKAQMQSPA
Chain of human plasma kallikrein (P03952 20-390 partner limits assumed): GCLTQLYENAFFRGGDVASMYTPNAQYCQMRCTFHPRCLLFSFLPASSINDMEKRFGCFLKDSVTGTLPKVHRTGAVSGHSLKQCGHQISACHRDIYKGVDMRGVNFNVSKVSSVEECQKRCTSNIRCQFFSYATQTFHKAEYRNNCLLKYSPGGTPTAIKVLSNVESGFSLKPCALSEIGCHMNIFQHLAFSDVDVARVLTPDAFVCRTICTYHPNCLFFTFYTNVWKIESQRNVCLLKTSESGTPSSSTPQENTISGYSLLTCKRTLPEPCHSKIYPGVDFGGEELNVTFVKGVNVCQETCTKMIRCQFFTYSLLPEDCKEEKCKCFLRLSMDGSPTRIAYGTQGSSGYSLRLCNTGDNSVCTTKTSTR
T1 sequence (P03951 388-625 limits assumed): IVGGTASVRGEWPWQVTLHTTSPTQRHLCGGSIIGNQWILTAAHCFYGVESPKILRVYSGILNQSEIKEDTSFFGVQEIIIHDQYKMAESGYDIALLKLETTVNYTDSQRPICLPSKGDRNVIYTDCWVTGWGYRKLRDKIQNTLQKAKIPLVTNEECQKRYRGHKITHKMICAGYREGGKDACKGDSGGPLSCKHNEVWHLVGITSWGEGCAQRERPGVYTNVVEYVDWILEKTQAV
T1 sequence (P03951 19-387 partner limits assumed): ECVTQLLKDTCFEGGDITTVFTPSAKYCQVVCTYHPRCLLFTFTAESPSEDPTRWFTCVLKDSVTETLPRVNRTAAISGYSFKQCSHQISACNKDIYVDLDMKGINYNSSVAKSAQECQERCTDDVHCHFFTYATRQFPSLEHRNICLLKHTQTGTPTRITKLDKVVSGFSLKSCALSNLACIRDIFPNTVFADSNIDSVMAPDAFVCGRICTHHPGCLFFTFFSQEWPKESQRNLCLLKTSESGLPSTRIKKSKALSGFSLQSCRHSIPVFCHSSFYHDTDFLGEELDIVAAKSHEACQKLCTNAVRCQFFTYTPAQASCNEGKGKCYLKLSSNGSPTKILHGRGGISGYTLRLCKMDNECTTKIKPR

SMILES	IC50 (human plasma kallikrein)	IC50 (human factor XIa)
CCC(C(=O)Nc1ccc(C(=O)NC)cc1)n1cc(OC)c(-c2cc(Cl)ccc2C#N)cc1=O (racemic) [Example 26, 4-({2-[4-(5-chloro-2-cyanophenyl)-5-methoxy-2-oxopyridin-1(2H)-yl]butanoyl}amino)-N-methylbenzamide]	20 nM	20 nM
CNC(=O)c1ccc(NC(=O)C(C[C@@H]2CCCCO2)n2cc(Cl)c(-c3cc(Cl)ccc3C#N)cc2=O)cc1F (stereo partly drawn) [Example 15]	260 nM	28 nM
COc1cn(C(CCOC(C)(C)C)C(=O)Nc2ccc(C(N)=O)c(F)c2)c(=O)cc1-c1cc(Cl)ccc1C#N (racemic) [Example 21, 4-({4-tert-Butoxy-2-[4-(5-chloro-2-cyanophenyl)-5-methoxy-2-oxopyridin-1(2H)-yl]butanoyl}amino)-2-fluorobenzamide]	6.8 nM	7.4 nM
COCCC(C(=O)Nc1ccc(C(N)=O)c(OC)c1)n1cc(OC)c(-c2cc(Cl)ccc2C#N)cc1=O (racemic) [Example 48, 4-({2-[4-(5-Chloro-2-cyanophenyl)-5-methoxy-2-oxopyridin-1(2H)-yl]-4-methoxybutanoyl}amino)-2-methoxybenzamide]	7.7 nM	15 nM
N#Cc1ccc(Cl)cc1-c1cc(=O)n(C(Cc2ccccn2)C(=O)Nc2ccc(C(N)=O)c(F)c2)cc1Cl (stereo not drawn) [Example 13]	110 nM	63 nM
COc1cn(C(Cc2cc(C)no2)C(=O)Nc2ccc(C(N)=O)c(F)c2)c(=O)cc1-c1cc(Cl)ccc1F (stereo not drawn) [Example 16]	350 nM	200 nM
COCCC(C(=O)Nc1ccc(C(N)=O)c(F)c1)n1cc(OC)c(-c2cc(OC)ccc2C#N)cc1=O (racemic) [Example 23, 4-({2-[4-(2-Cyano-5-methoxyphenyl)-5-methoxy-2-oxopyridin-1(2H)-yl]-4-methoxybutanoyl}amino)-2-fluorobenzamide]	310 nM	170 nM
COc1cn(C(Cc2ccccn2)C(=O)Nc2ccc(C(N)=O)c(F)c2)c(=O)cc1-c1cc(Cl)ccc1F (stereo not drawn) [Example 17]	230 nM	290 nM
COc1cn(C(Cc2ccccn2)C(=O)Nc2ccc(C(N)=O)c(F)c2)c(=O)cc1-c1cc(Cl)ccc1C(F)F (racemic) [Example 34, 4-{[2-{4-[5-Chloro-2-(difluoromethyl)phenyl]-5-methoxy-2-oxopyridin-1(2H)-yl}-3-(pyridin-2-yl)propanoyl}amino]-2-fluorobenzamide]	53 nM	42 nM

Other lines, results leading:

IC50 (human plasma kallikrein)	IC50 (human factor XIa)	SMILES
11 nM	13 nM	COc1cn(C(Cc2ncco2)C(=O)Nc2ccc(C(N)=O)c(F)c2)c(=O)cc1-c1cc(Cl)ccc1C#N (racemic) [Example 36, 4-({2-[4-(5-Chloro-2-cyanophenyl)-5-methoxy-2-oxopyridin-1(2H)-yl]-3-(1,3-oxazol-2-yl)propanoyl}amino)-2-fluorobenzamide]
24 nM	32 nM	CNC(=O)c1ccc(NC(=O)C(Cc2coc(C)n2)n2cc(OC)c(-c3cc(Cl)ccc3C#N)cc2=O)cc1F (racemic) [Example 47, 4-({2-[4-(5-Chloro-2-cyanophenyl)-5-methoxy-2-oxopyridin-1(2H)-yl]-3-(2-methyl-1,3-oxazol-4-yl)propanoyl}amino)-2-fluoro-N-methylbenzamide]
11 nM	13 nM	COc1cn(C(Cc2cc(C)no2)C(=O)Nc2ccc(C(N)=O)c(F)c2)c(=O)cc1-c1cc(Cl)ccc1C#N (racemic) [Example 32, 4-({2-[4-(5-Chloro-2-cyanophenyl)-5-methoxy-2-oxopyridin-1(2H)-yl]-3-(3-methyl-1,2-oxazol-5-yl)propanoyl}amino)-2-fluorobenzamide]
2.7 nM	5.1 nM	COc1cn(C(Cc2ccncc2)C(=O)Nc2ccc(C(N)=O)c(F)c2)c(=O)cc1-c1cc(Cl)ccc1C#N (single isomer, unassigned) [Example 29, 4-({2-[4-(5-Chloro-2-cyanophenyl)-5-methoxy-2-oxopyridin-1(2H)-yl]-3-(pyridin-4-yl)propanoyl}amino)-2-fluorobenzamide]
10 nM	11 nM	COc1cn(C(Cc2ccccn2)C(=O)Nc2ccc(C(N)=O)c(F)c2)c(=O)cc1-c1cc(Cl)ccc1C#N (stereo not drawn) [Example 12]
4.8 nM	6.6 nM	COc1cn(C(Cc2ccccn2)C(=O)Nc2ccc(C(N)=O)c(F)c2)c(=O)cc1-c1cc(Cl)ccc1C#N (single isomer, unassigned) [Example 28, 4-({2-[4-(5-Chloro-2-cyanophenyl)-5-methoxy-2-oxopyridin-1(2H)-yl]-3-(pyridin-2-yl)propanoyl}amino)-2-fluorobenzamide]
33 nM	43 nM	COc1cn(C(Cc2cocn2)C(=O)Nc2ccc(C(N)=O)c(F)c2)c(=O)cc1-c1cc(Cl)ccc1C#N (stereo not drawn) [Example 3]
21 nM	28 nM	COc1cn(C(Cc2coc(C)n2)C(=O)Nc2ccc(C(N)=O)c(F)c2)c(=O)cc1-c1cc(Cl)ccc1C#N (racemic) [Example 41, 4-({2-[4-(5-Chloro-2-cyanophenyl)-5-methoxy-2-oxopyridin-1(2H)-yl]-3-(2-methyl-1,3-oxazol-4-yl)-propanoyl}amino)-2-fluorobenzamide]
7.3 nM	12 nM	COc1cn(C(Cc2nnc(C)o2)C(=O)Nc2ccc(C(N)=O)c(F)c2)c(=O)cc1-c1cc(Cl)ccc1C#N (racemic) [Example 35, 4-({2-[4-(5-Chloro-2-cyanophenyl)-5-methoxy-2-oxopyridin-1(2H)-yl]-3-(5-methyl-1,3,4-oxadiazol-2-yl)propanoyl}amino)-2-fluorobenzamide]
8.3 nM	12 nM	COc1cn(C(Cc2ccn(C)n2)C(=O)Nc2ccc(C(N)=O)c(F)c2)c(=O)cc1-c1cc(C)ccc1C#N (racemic) [Example 43, 4-({2-[4-(2-Cyano-5-methylphenyl)-5-methoxy-2-oxopyridin-1(2H)-yl]-3-(1-methyl-1H-pyrazol-3-yl)propanoyl}amino)-2-fluorobenzamide]
38 nM	51 nM	COc1cn(C(CC2=NOCC2)C(=O)Nc2ccc(C(N)=O)c(F)c2)c(=O)cc1-c1cc(Cl)ccc1C#N (racemic) [Example 42, 4-({2-[4-(5-Chloro-2-cyanophenyl)-5-methoxy-2-oxopyridin-1(2H)-yl]-3-(4,5-dihydro-1,2-oxazol-3-yl)propanoyl}amino)-2-fluorobenzamide]
10 nM	15 nM	COc1cn(C(Cc2noc(C)n2)C(=O)Nc2ccc(C(N)=O)c(F)c2)c(=O)cc1-c1cc(Cl)ccc1C#N (racemic) [Example 33, 4-({2-[4-(5-Chloro-2-cyanophenyl)-5-methoxy-2-oxopyridin-1(2H)-yl]-3-(5-methyl-1,2,4-oxadiazol-3-yl)propanoyl}amino)-2-fluorobenzamide]
